Assay results published in ChEMBL document CHEMBL1201862, “PubChem BioAssay data set” (2004).
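96-well plates; 48 h exposure; 5 concentrations. Endpoints by linear interpolation between flanking doses. Not reached: highest tested concentration assigned. GI50 is the concentration that inhibits growth by half.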 The source made the active and inactive calls. Rule as the data show it: active = GI50 up to about 1.1 µM and inactive = higher.

Columns and labels:
Assay in all cases: NCI anticancer screen, dose series, 48 h
COLO 205 = test system: COLO 205
UACC-62 = test system: UACC-62
A549 = test system: A549
NCI-H522 = test system: NCI-H522
SF-539 = test system: SF-539
M14 = test system: M14
DMS-273 = test system: DMS-273
DLD-1 = test system: DLD-1
LXFL 529 = test system: LXFL 529
UACC-257 = test system: UACC-257
SK-MEL-2 = test system: SK-MEL-2
SNB-75 = test system: SNB-75
CAKI-1 = test system: CAKI-1
HOP-18 = test system: HOP-18
MOLT-4 = test system: MOLT-4
SK-MEL-5 = test system: SK-MEL-5
SW-620 = test system: SW-620
KM-20L2 = test system: KM-20L2
A498 = test system: A498
786-0 = test system: 786-0
HL-60 = test system: HL-60
K562 = test system: K562
IGROV-1 = test system: IGROV-1
KM12 = test system: KM12
SK-MEL-28 = test system: SK-MEL-28
OVCAR-3 = test system: OVCAR-3
ACHN = test system: ACHN
LOX IMVI = test system: LOX IMVI
SF-268 = test system: SF-268
EKVX = test system: EKVX
OVCAR-8 = test system: OVCAR-8
HCC 2998 = test system: HCC 2998
SNB-19 = test system: SNB-19
U-251 = test system: U-251
RPMI-8226 = test system: RPMI-8226
OVCAR-5 = test system: OVCAR-5
SN12C = test system: SN12C
HCT-116 = test system: HCT-116
RXF 631 = test system: RXF 631
M19-MEL = test system: M19-MEL
RXF 393 = test system: RXF 393
HCT-15 = test system: HCT-15
CCRF-CEM = test system: CCRF-CEM
NCI-H226 = test system: NCI-H226
HOP-92 = test system: HOP-92
Malme-3M = test system: Malme-3M
SK-OV-3 = test system: SK-OV-3
DMS-114 = test system: DMS-114
NCI-H23 = test system: NCI-H23
OVCAR-4 = test system: OVCAR-4
SF-295 = test system: SF-295
UO-31 = test system: UO-31
TK-10 = test system: TK-10
HT-29 = test system: HT-29
SNB-78 = test system: SNB-78
SR = test system: SR
XF498 = test system: XF498

For `[O-][S+]1Nc2c(Cl)cc(Cl)c3c(Cl)cc(Cl)c(c23)N1`, the GI50 (COLO 205) was > 100 µM (inactive), the GI50 (UACC-62) was 22.3 µM (inactive) and the GI50 (A549) was 29.6 µM (inactive). The GI50 (NCI-H522) was 22.7 µM (inactive), the GI50 (SF-539) was 36.7 µM (inactive) and the GI50 (M14) was 31.8 µM (inactive). For the same compound, the GI50 (DMS-273) was 39.4 µM (inactive), the GI50 (DLD-1) was 28.6 µM (inactive) and the GI50 (LXFL 529) was 40.3 µM (inactive). For the same compound, the GI50 (UACC-257) was 54.7 µM (inactive), the GI50 (SK-MEL-2) was 47 µM (inactive) and the GI50 (SNB-75) was 26.1 µM (inactive). The GI50 (CAKI-1) was 32.4 µM (inactive), the GI50 (HOP-18) was 34.1 µM (inactive) and the GI50 (MOLT-4) was 22.6 µM (inactive). The GI50 (SK-MEL-5) was 37.8 µM (inactive), the GI50 (SW-620) was 37.2 µM (inactive) and the GI50 (KM-20L2) was 46.5 µM (inactive). The GI50 (A498) was 21.9 µM (inactive), the GI50 (786-0) was 18.5 µM (inactive) and the GI50 (HL-60) was 34.2 µM (inactive). The GI50 (K562) was 41.5 µM (inactive), the GI50 (IGROV-1) was 58.5 µM (inactive) and the GI50 (KM12) was 44.6 µM (inactive). For the same compound, the GI50 (SK-MEL-28) was 62.8 µM (inactive), the GI50 (OVCAR-3) was 30.6 µM (inactive) and the GI50 (ACHN) was 27.7 µM (inactive). For the same compound, the GI50 (LOX IMVI) was 32.8 µM (inactive), the GI50 (SF-268) was 34.6 µM (inactive) and the GI50 (EKVX) was 59.7 µM (inactive). For the same compound, the GI50 (OVCAR-8) was 32.4 µM (inactive), the GI50 (HCC 2998) was 28.4 µM (inactive) and the GI50 (SNB-19) was 40.3 µM (inactive). For the same compound, the GI50 (U-251) was 28.2 µM (inactive), the GI50 (RPMI-8226) was 37.8 µM (inactive) and the GI50 (OVCAR-5) was 27.8 µM (inactive). For the same compound, the GI50 (SN12C) was 34.6 µM (inactive), the GI50 (HCT-116) was 34.1 µM (inactive) and the GI50 (RXF 631) was 31.8 µM (inactive). The GI50 (M19-MEL) was 32.4 µM (inactive), the GI50 (RXF 393) was 21.9 µM (inactive) and the GI50 (HCT-15) was 32.1 µM. For the same compound, the GI50 (CCRF-CEM) was 31.6 µM (inactive), the GI50 (NCI-H226) was 25.1 µM (inactive) and the GI50 (HOP-92) was 21.3 µM (inactive). For the same compound, the GI50 (Malme-3M) was 43.8 µM (inactive), the GI50 (SK-OV-3) was 45.7 µM (inactive) and the GI50 (DMS-114) was 36.3 µM (inactive). For the same compound, the GI50 (NCI-H23) was 29.1 µM (inactive), the GI50 (OVCAR-4) was 25.6 µM (inactive) and the GI50 (SF-295) was 53.1 µM (inactive). For the same compound, the GI50 (UO-31) was 51.8 µM (inactive), the GI50 (TK-10) was 42.6 µM (inactive) and the GI50 (HT-29) was 41.9 µM (inactive).
`N/N=C1\C(=O)N(CCc2ccccc2)C(=O)C1C(=O)NCCc1ccccc1` (stereo not given) was tested, and the GI50 (SNB-78) was > 100 µM (inactive), the GI50 (UACC-62) was > 100 µM (inactive) and the GI50 (A549) was > 100 µM (inactive). For the same compound, the GI50 (NCI-H522) was > 100 µM (inactive), the GI50 (SF-539) was > 100 µM (inactive) and the GI50 (M14) was > 100 µM (inactive). The GI50 (DMS-273) was > 100 µM (inactive), the GI50 (DLD-1) was > 100 µM (inactive) and the GI50 (LXFL 529) was > 100 µM (inactive). For the same compound, the GI50 (UACC-257) was > 100 µM (inactive), the GI50 (SK-MEL-2) was > 100 µM (inactive) and the GI50 (SNB-75) was > 100 µM (inactive). The GI50 (CAKI-1) was > 100 µM (inactive), the GI50 (MOLT-4) was > 100 µM (inactive) and the GI50 (SW-620) was > 100 µM (inactive). For the same compound, the GI50 (KM-20L2) was > 100 µM (inactive), the GI50 (SR) was > 100 µM (inactive) and the GI50 (786-0) was > 100 µM (inactive). The GI50 (HL-60) was > 100 µM (inactive), the GI50 (K562) was > 100 µM (inactive) and the GI50 (IGROV-1) was > 100 µM (inactive). For the same compound, the GI50 (KM12) was > 100 µM (inactive), the GI50 (SK-MEL-28) was > 100 µM (inactive) and the GI50 (OVCAR-3) was > 100 µM (inactive). The GI50 (ACHN) was > 100 µM (inactive), the GI50 (LOX IMVI) was > 100 µM (inactive) and the GI50 (SF-268) was > 100 µM (inactive). The GI50 (EKVX) was > 100 µM (inactive), the GI50 (SNB-19) was > 100 µM (inactive) and the GI50 (U-251) was > 100 µM (inactive). The GI50 (RPMI-8226) was > 100 µM (inactive), the GI50 (SN12C) was > 100 µM (inactive) and the GI50 (HCT-116) was > 100 µM (inactive). For the same compound, the GI50 (RXF 631) was > 100 µM (inactive), the GI50 (M19-MEL) was > 100 µM (inactive) and the GI50 (CCRF-CEM) was > 100 µM (inactive). For the same compound, the GI50 (NCI-H226) was > 100 µM (inactive), the GI50 (HOP-92) was > 100 µM (inactive) and the GI50 (Malme-3M) was > 100 µM (inactive). For the same compound, the GI50 (SK-OV-3) was > 100 µM (inactive), the GI50 (NCI-H23) was > 100 µM (inactive) and the GI50 (SF-295) was > 100 µM (inactive). For the same compound, the GI50 (XF498) was > 100 µM (inactive), the GI50 (UO-31) was > 100 µM (inactive) and the GI50 (TK-10) was > 100 µM (inactive). For the same compound, the GI50 (HT-29) was > 100 µM (inactive).
